Experimental data taken from US7812022B2 (GlaxoSmithKline LLC, priority 2004, dated 2010).

What was measured:
[1] = system: BT474 and HN5 tumor cell lines; assay: Methylene blue growth inhibition assay (cellular Method A); type: cell-based, Human; conditions: Homo sapiens, BT-474, 72 h, 3 days, read-out: Activity (Method): growth inhibition IC50 class
Procedure, shortened: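 Colo205, BT474 and HN5 cells in DMEM/10% FBS (BT474 10,000, HN5 3,000 cells/well) treated next day with compound in DMEM, 0.3% final DMSO, for 3 days at 37° C. Biomass stained with methylene blue, solubilized, read at OD 620; IC50 interpolated by nonlinear regression from % inhibition versus vehicle.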

[2] = target: T1, ErbB2 or EGFR; assay: ErbB family substrate phosphorylation enzyme assay (HTRF), Method A or Method B; type: biochemical
T1 construct: enzymes purified from a baculovirus expression system; Reagent production was conducted essentially as described in Brignola, P. S., et al, (2002) J. Biol. Chem. 277(2): 1576-1585
Procedure, shortened: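 Baculovirus-expressed EGFR or ErbB2 (0.8 or 10 nM in enzyme mix) phosphorylates biotinylated Peptide C with 20 µM ATP and 0.8 µM peptide (substrate-mix levels), MnCl2, pH 7.5. Reaction ran 90 min at 20 °C with EDTA stop and HTRF anti-phosphotyrosine read. Method A: enzyme added last; Method B: 1 h enzyme–compound preincubation.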

[3] = Method A: substrate mix added first, reaction started with enzyme mix
[4] = Method B: enzyme mix pre-incubated with compound 1 hour at 20° C., started with substrate mix

Structure (SMILES) | IC50 [1] [nM] | Activity (Method): pIC50 class against ErbB2 or EGFR [2, 3] | Activity (Method): pIC50 class against ErbB2 or EGFR [2, 4]
CN(CCCOc1ccc(N)cc1F)c1nccc(-c2c(-c3cccc(NC(=O)c4c(F)cccc4F)c3)nn3ccccc23)n1 [Example 130, N-[3-(3-{2-[{3-[(4-Amino-2-fluorophenyl)oxy]propyl}(methyl)amino]-4-pyrimidinyl}pyrazolo[1,5-a]pyridin-2-yl)phenyl]-2,6-difluorobenzamide] | > 1000 | ++ (A) (at least one pIC50 measurement greater than 6 against either ErbB2 or EGFR but no measurement greater than pIC50 of 7) | 
O=C(Nc1cccc(-c2nn3ccccc3c2-c2ccnc(Nc3ccccc3)n2)c1)c1ccco1 [Example 137, Furan-2-carboxylic acid {3-[3-(2-phenylamino-pyrimidin-4-yl)-pyrazolo[1,5-a]pyridin-2-yl]-phenyl}-amide] | 100 to 1000 | +++ (A) (at least one pIC50 measurement of greater than 7 against either ErbB2 or EGFR) | 
O=C(Nc1cccc(-c2nn3ccccc3c2-c2ccnc(Nc3ccccc3)n2)c1)c1cccnc1 [Example 138, N-{3-[3-(2-Phenylamino-pyrimidin-4-yl)-pyrazolo[1,5-a]pyridin-2-yl]-phenyl}-nicotinamide] | 100 to 1000 | +++ (A) (at least one pIC50 measurement of greater than 7 against either ErbB2 or EGFR) | 
O=C(Nc1cccc(-c2nn3ccccc3c2-c2ccnc(Nc3ccccc3)n2)c1)c1cccs1 [Example 139] | 100 to 1000 | ++ (A) (at least one pIC50 measurement greater than 6 against either ErbB2 or EGFR but no measurement greater than pIC50 of 7) | 
O=C(Nc1cccc(-c2nn3ccccc3c2-c2ccnc(Nc3ccccc3)n2)c1)c1ccccn1 [Example 140] | 100 to 1000 | ++ (A) (at least one pIC50 measurement greater than 6 against either ErbB2 or EGFR but no measurement greater than pIC50 of 7) | 
Cc1cccc(C(=O)Nc2cccc(-c3nn4ccccc4c3-c3ccnc(Nc4ccccc4)n3)c2)c1 [Example 141, 3-Methyl-N-(3-{3-[2-(phenylamino)-4-pyrimidinyl]pyrazolo[1,5-a]pyridin-2-yl}phenyl)benzamide] | 100 to 1000 | ++ (A) (at least one pIC50 measurement greater than 6 against either ErbB2 or EGFR but no measurement greater than pIC50 of 7) | 
Nc1cccc(C(=O)Nc2cccc(-c3nn4ccccc4c3-c3ccnc(Nc4ccccc4)n3)c2)c1 [Example 143, 3-Amino-N-(3-{3-[2-(phenylamino)-4-pyrimidinyl]pyrazolo[1,5-a]pyridin-2-yl}phenyl)benzamide] | 100 to 1000 | +++ (A) (at least one pIC50 measurement of greater than 7 against either ErbB2 or EGFR) | 
Nc1ccc(C(=O)Nc2cccc(-c3nn4ccccc4c3-c3ccnc(Nc4ccccc4)n3)c2)cc1 [Example 144, 4-Amino-N-(3-{3-[2-(phenylamino)-4-pyrimidinyl]pyrazolo[1,5-a]pyridin-2-yl}phenyl)benzamide] | 100 to 1000 | +++ (A) (at least one pIC50 measurement of greater than 7 against either ErbB2 or EGFR) | 
Cc1ccsc1C(=O)Nc1cccc(-c2nn3ccccc3c2-c2ccnc(Nc3ccccc3)n2)c1 [Example 145, 3-Methyl-N-(3-{3-[2-(phenylamino)-4-pyrimidinyl]pyrazolo[1,5-a]pyridin-2-yl}phenyl)-2-thiophenecarboxamide] | < 100 | +++ (A) (at least one pIC50 measurement of greater than 7 against either ErbB2 or EGFR) | 
O=C(Nc1cccc(-c2nn3ccccc3c2-c2ccnc(Nc3cccc(F)c3)n2)c1)c1ccccc1 [Example 146] | 100 to 1000 |  | +++ (B) (at least one pIC50 measurement of greater than 7 against either ErbB2 or EGFR)

Now from value to compound, other results behind:

IC50 [1] [nM] | Structure (SMILES) | Activity (Method): pIC50 class against ErbB2 or EGFR [2, 3] | Activity (Method): pIC50 class against ErbB2 or EGFR [2, 4]
100 to 1000 | O=C(Nc1cccc(-c2nn3ccccc3c2-c2ccnc(Nc3ccc(Cl)c(C(F)(F)F)c3)n2)c1)c1c(F)cccc1F [Example 89] | ++ (A) (at least one pIC50 measurement greater than 6 against either ErbB2 or EGFR but no measurement greater than pIC50 of 7) | 
100 to 1000 | N#Cc1cc(Nc2nccc(-c3c(-c4cccc(NC(=O)c5c(F)cccc5F)c4)nn4ccccc34)n2)ccc1-n1cccc1 [Example 90] | ++ (A) (at least one pIC50 measurement greater than 6 against either ErbB2 or EGFR but no measurement greater than pIC50 of 7) | 
100 to 1000 | O=C(Nc1cccc(-c2nn3ccccc3c2-c2ccnc(Nc3ccc(Cl)cc3)n2)c1)c1c(F)cccc1F [Example 92] | ++ (A) (at least one pIC50 measurement greater than 6 against either ErbB2 or EGFR but no measurement greater than pIC50 of 7) | 
< 100 | Cc1cc(Nc2nccc(-c3c(-c4cccc(NC(=O)c5c(F)cccc5F)c4)nn4ccccc34)n2)ccc1C#N [Example 95] |  | +++ (B) (at least one pIC50 measurement of greater than 7 against either ErbB2 or EGFR)
100 to 1000 | O=C(Nc1cccc(-c2nn3ccccc3c2-c2ccnc(Nc3ccc(Nc4ccccc4)cc3)n2)c1)c1c(F)cccc1F [Example 96] | ++ (A) (at least one pIC50 measurement greater than 6 against either ErbB2 or EGFR but no measurement greater than pIC50 of 7) | 
100 to 1000 | O=C(c1ccccc1)c1ccc(Nc2nccc(-c3c(-c4cccc(NC(=O)c5c(F)cccc5F)c4)nn4ccccc34)n2)cc1 [Example 98, 2,6-Difluoro-N-{3-[3-(2-{[4-(phenylcarbonyl)phenyl]-amino}-4-pyrimidinyl)pyrazolo[1,5-a]pyridin-2-yl]phenyl}benzamide] | ++ (A) (at least one pIC50 measurement greater than 6 against either ErbB2 or EGFR but no measurement greater than pIC50 of 7) | 
< 100 | O=C(Nc1cccc(-c2nn3ccccc3c2-c2ccnc(Nc3ccc(N4CCOCC4)c(F)c3)n2)c1)c1c(F)cccc1F [Example 99, 2,6-Difluoro-N-{3-[3-(2-{[3-fluoro-4-(4-morpholinyl)-phenyl]amino}-4-pyrimidinyl)pyrazolo[1,5-a]pyridin-2-yl]phenyl}benzamide] | +++ (A) (at least one pIC50 measurement of greater than 7 against either ErbB2 or EGFR) | 
< 100 | O=C(Nc1cccc(-c2nn3ccccc3c2-c2ccnc(Nc3ccc(C(=O)N4CCOCC4)cc3)n2)c1)c1c(F)cccc1F [Example 100, 2,6-Difluoro-N-{3-[3-(2-{[4-(4-morpholinylcarbonyl)-phenyl]amino}-4-pyrimidinyl)pyrazolo[1,5-a]pyridin-2-yl]phenyl}benzamide] | +++ (A) (at least one pIC50 measurement of greater than 7 against either ErbB2 or EGFR) | 
< 100 | COc1ccc(Nc2nccc(-c3c(-c4cccc(NC(=O)c5c(F)cccc5F)c4)nn4ccccc34)n2)cc1N1CCNCC1 [Example 111, 2,6-Difluoro-N-{3-[3-(2-{[4-(methyloxy)-3-(1-piperazinyl)phenyl]amino}-4-pyrimidinyl)pyrazolo[1,5-a]pyridin-2-yl]phenyl}benzamide] |  | +++ (B) (at least one pIC50 measurement of greater than 7 against either ErbB2 or EGFR)
< 100 | CN(C)CCCc1ccc(Nc2nccc(-c3c(-c4cccc(NC(=O)c5c(F)cccc5F)c4)nn4ccccc34)n2)cc1 [Example 112, N-(3-{3-[2-({4-[3-(dimethylamino)propyl]phenyl}-amino)-4-pyrimidinyl]pyrazolo[1,5-a]pyridin-2-yl}phenyl)-2,6-difluorobenzamide] |  | +++ (B) (at least one pIC50 measurement of greater than 7 against either ErbB2 or EGFR)
< 100 | CN(C)CC(=O)Nc1ccc(Nc2nccc(-c3c(-c4cccc(NC(=O)c5c(F)cccc5F)c4)nn4ccccc34)n2)cc1 [Example 113, N-(3-{3-[2-({4-[(N,N-dimethylglycyl)amino]phenyl}-amino)-4-pyrimidinyl]pyrazolo[1,5-a]pyridin-2-yl}phenyl)-2,6-difluorobenzamide] |  | +++ (B) (at least one pIC50 measurement of greater than 7 against either ErbB2 or EGFR)
< 100 | O=C(Nc1cccc(-c2nn3ccccc3c2-c2ccnc(Nc3ccc4c(c3)OCCO4)n2)c1)c1c(F)cccc1F [Example 114, N-(3-{3-[2-(2,3-dihydro-1,4-benzodioxin-6-ylamino)-4-pyrimidinyl]pyrazolo[1,5-a]pyridin-2-yl}phenyl)-2,6-difluorobenzamide] | +++ (A) (at least one pIC50 measurement of greater than 7 against either ErbB2 or EGFR) | 
< 100 | COCCOc1ccc(Nc2nccc(-c3c(-c4cccc(NC(=O)c5c(F)cccc5F)c4)nn4ccccc34)n2)cc1Cl [Example 125, N-[3-(3-{2-[(3-Chloro-4-{[2-(methyloxy)ethyl]oxy}-phenyl)amino]-4-pyrimidinyl}pyrazolo[1,5-a]pyridin-2-yl)phenyl]-2,6-difluorobenzamide] | +++ (A) (at least one pIC50 measurement of greater than 7 against either ErbB2 or EGFR) | 
100 to 1000 | O=C(Nc1cccc(-c2nn3ccccc3c2-c2ccnc(Nc3ccc(N4CCCCC4)c(F)c3)n2)c1)c1c(F)cccc1F [Example 147, 2,6-Difluoro-N-{3-[3-(2-{[3-fluoro-4-(1-piperidinyl)-phenyl]amino}-4-pyrimidinyl)pyrazolo[1,5-a]pyridin-2-yl]phenyl}benzamide] | +++ (A) (at least one pIC50 measurement of greater than 7 against either ErbB2 or EGFR) | 
